In patent US20020035100A1, “Alkyl ether modified polycyclic compounds having a terminal phenol and uses for protection of cells” (priority 2000, published 2002):
“Also recorded” adds a separate entry of the source.

How the values were obtained:
HT-22 cells = assay: Cytoprotection of HT-22 cells against glutamate exposure (calcein AM cell viability); assay type: cell-based, Mouse; settings: for activity compared with 4c and 4e: at 10 μM; for cytoprotection (result in words): tested at 0.01-10 μM; for neuroprotection: at 10 μM and 1 μM
Experimental: Mouse clonal hippocampal HT-22 cells were cultured in DMEM media supplemented with 10% fetal bovine serum under standard cell culture conditions. All wells in the 96 well culture plate contained approximately 5,000 HT-22 cells as determined by a Neubauer hemacytometer and the cells were incubated for 24 hrs before the compounds were added. The estradiol derivatives were purified recrystallization or column chromatography and were free from (1) as determined by HPLC. All agents were dissolved in absolute ethanol and diluted, with the culture media, to a final concentration of 0.01 μM; 0.1 μM; 1.0 μM; and 10 μM in their respective wells. The cells were further incubated for 24 hrs before sodium glutamate in a solution of phosphate buffer was added. Cell viability was quantified 2 hrs later by the calcein AM assay (Green, P. S., E. J.Perez, T. Calloway and J. W. Simpkins: (2000), Journal of Neurocytology, Vol. 29, pp. 419-423) in a phosphate buffer solution.
ANOVA was used to determine the significance of differences among groups. Comparison between groups were done using the Tukey test. Ap<0.05 was considered significant.

ERα = biological target: T1, ERα (Homo sapiens, UniProt P03372); assay: Estrogen receptor binding, displacement of radiolabeled 17β-estradiol; design: dose or concentration left out as unconfirmed; settings: human cloned ERα, 17β-estradiol assigned 1; <0.01 = no evidence of binding
T1 sequence (P03372 1-595): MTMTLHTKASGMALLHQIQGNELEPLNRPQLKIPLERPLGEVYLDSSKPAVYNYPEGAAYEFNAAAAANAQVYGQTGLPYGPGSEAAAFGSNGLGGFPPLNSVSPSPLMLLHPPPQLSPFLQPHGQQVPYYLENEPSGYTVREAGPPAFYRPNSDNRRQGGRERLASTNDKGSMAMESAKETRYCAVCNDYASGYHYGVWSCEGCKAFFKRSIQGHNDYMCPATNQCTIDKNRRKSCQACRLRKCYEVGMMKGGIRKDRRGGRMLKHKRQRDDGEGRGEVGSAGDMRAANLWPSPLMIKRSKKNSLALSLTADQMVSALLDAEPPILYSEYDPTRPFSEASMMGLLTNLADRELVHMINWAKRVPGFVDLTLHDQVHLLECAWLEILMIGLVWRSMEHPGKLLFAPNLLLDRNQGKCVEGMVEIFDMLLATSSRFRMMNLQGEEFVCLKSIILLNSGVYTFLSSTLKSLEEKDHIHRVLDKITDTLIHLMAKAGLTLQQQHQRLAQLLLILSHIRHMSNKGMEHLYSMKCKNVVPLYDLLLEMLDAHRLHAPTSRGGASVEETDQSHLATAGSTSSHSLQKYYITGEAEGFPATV

ERβ = ERβ (Homo sapiens, UniProt Q92731); assay: Estrogen receptor binding, displacement of radiolabeled 17β-estradiol; design: dose or concentration left out as unconfirmed; settings: human cloned ERβ, 17β-estradiol assigned 1; <0.01 = no evidence of binding
Chain of ERβ (Q92731 whole entry): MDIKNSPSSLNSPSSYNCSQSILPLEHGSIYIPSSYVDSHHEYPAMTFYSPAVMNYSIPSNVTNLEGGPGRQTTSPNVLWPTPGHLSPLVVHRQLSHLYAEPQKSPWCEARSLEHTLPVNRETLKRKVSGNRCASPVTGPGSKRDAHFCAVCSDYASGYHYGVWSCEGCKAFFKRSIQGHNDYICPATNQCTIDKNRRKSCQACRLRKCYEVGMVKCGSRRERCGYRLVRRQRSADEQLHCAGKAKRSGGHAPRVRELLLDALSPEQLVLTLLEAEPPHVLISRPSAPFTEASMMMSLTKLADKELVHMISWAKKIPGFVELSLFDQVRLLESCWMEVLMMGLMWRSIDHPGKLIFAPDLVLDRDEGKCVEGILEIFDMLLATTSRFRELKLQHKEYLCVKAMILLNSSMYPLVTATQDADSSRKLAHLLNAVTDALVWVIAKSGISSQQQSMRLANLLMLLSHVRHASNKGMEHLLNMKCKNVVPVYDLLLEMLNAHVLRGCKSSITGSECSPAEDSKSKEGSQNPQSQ

Row | Compound | cytoprotection (result in words) (HT-22 cells) | ERα BINDING (Relative to E2) (ERα) | melting point | further results
1 | C[C@]12CC[C@@H]3c4ccc(O)cc4CC[C@H]3[C@@H]1CC[C@@H]2O [Compound 1, 17β-estradiol, reference compound] | effective only at 10 μM |  |  | activity compared with 4c and 4e (HT-22 cells): less active then 4c and 4e
2 | CO[C@H]1CC[C@H]2[C@@H]3CCc4cc(O)ccc4[C@H]3CC[C@]12C [Compound 4a, 17β-Methoxyestra-1,3,5(10)-trien-3-ol] | inactive; also recorded: ineffective even at 10 μM |  |  | activity compared with 4c and 4e (HT-22 cells): less active then 4c and 4e; cytoprotection (result in words) (HT-22 cells; listed as 17β-methylestradiol): effective only at 10 μM
3 | CCO[C@H]1CC[C@H]2[C@@H]3CCc4cc(O)ccc4[C@H]3CC[C@]12C [Compound 4b, 17β-Ethoxyestra-1,3,5(10)-trien-3-ol] |  | <0.01 |  | 
4 | CCCO[C@H]1CC[C@H]2[C@@H]3CCc4cc(O)ccc4[C@H]3CC[C@]12C [Compound 4c, 17β-Propoxyestra-1,3,5(10)-trien-3-ol] |  | <0.01 |  | 
5 | CCCCO[C@H]1CC[C@H]2[C@@H]3CCc4cc(O)ccc4[C@H]3CC[C@]12C [Compound 4d, 17β-Butoxyestra-1,3,5(10)-trien-3-ol] |  |  | 77 to 81 °C | 
6 | CCCCCCO[C@H]1CC[C@H]2[C@@H]3CCc4cc(O)ccc4[C@H]3CC[C@]12C [Compound 4e, 17β-Hexyloxyestra-1,3,5(10)-trien-3-ol] | active |  |  | neuroprotection (HT-22 cells): neuroprotective to a similar extent
7 | CCCCCCCCO[C@H]1CC[C@H]2[C@@H]3CCc4cc(O)ccc4[C@H]3CC[C@]12C [Compound 4f, 17β-Octyloxyestra-1,3,5(10)-trien-3-ol] |  | <0.01 |  | ERβ BINDING (Relative to E2) (ERβ): <0.01; neuroprotection (HT-22 cells): neuroprotective to a similar extent
8 | CCCCOc1ccc2c(c1)CC[C@@H]1[C@@H]2CC[C@]2(C)[C@@H](O)CC[C@@H]12 [Compound 5b, 3-Butoxyestra-1,3,5(10)-trien-17β-ol] | ineffective |  | 86 to 88 °C | 
9 | CCCCCCCCOc1ccc2c(c1)CC[C@@H]1[C@@H]2CC[C@]2(C)[C@@H](O)CC[C@@H]12 [Compound 5c, 3-Octyloxyestra-1,3,5(10)-trien-17β-ol] | ineffective |  | 64 to 66 °C | 
